Ends that are not written are not given here.
Key:
S. aureus = assay: SYTOX-Green uptake; type: cell-based; conditions: S. aureus 2 × 10^7 cfu/mL, 1 μM SYTOX-Green, 10 mM sodium phosphate buffer
Protocol: S. aureus CCARM 259237 cells were grown to the mid-log phase and suspended in 10 mM sodium phosphate buffer supplemented with 10% culture medium at pH 7.4 and 37° C, and then washed and suspended (2 × 10^7 cfu/mL) in 10 mM sodium phosphate buffer (pH 7.4) and incubated with 1 μM SYTOX-Green for 20 min in the dark. After the addition of peptides at the appropriate concentrations (1/2 MIC, MIC, 2× MIC, and/or 4× MIC), time-dependent increases in fluorescence, which is caused by the binding of the cationic dye to intracellular nucleic acids, was monitored using a Perkin-Elmer LS55 fluorometer (excitation wavelength, 485 nm; emission wavelength, 520 nm).

S. aureus ATCC 29213 = assay: microbe, parasite or virus in culture
Protocol: To determine the MICs of CSP-4, a single colony of S. aureus ATCC 29213 was cultured at 37° C in tryptic soy broth, as well as daptomycin and linezolid, which served as commercial antibiotic positive controls. […] For each agent, the MIC was determined daily for 29 days at pH 5.5 and/or for 8 days at pH 7.4 using cells from wells containing half the MIC (1/2 MIC well). […] All MICs were determined in duplicate.

hRBCs = type: cell-based, human; conditions: 400 μM peptide, PBS buffer containing 8% hRBCs, 1 h, 37° C, microscope
Protocol: (§1) www.oncotarget.com Oncotarget, Supplementary Materials
(§2) New antimicrobial peptide kills drug-resistant pathogens without […]
(§3) Supplementary Figure 1: The hemolytic activities of peptides were tested using hRBCs, and cytotoxicity was tested using a human keratinocyte line (HaCaT cells). The cells were treated with 400 μM peptide in PBS buffer containing 8% hRBCs (v/v). The samples were then incubated with mild agitation for 1 h at 37° C, and then spun down at 800 × g for 10 min. Changes in hRBC morphology were examined under a microscope. Cells were treated with 400 μM rhodamine-labeled peptides. HaCaT cells were seeded at 4 × 10^3 cells/well and then incubated for 24 h, treated with rhodamine-labeled peptide and incubated for an additional 24 h at 37° C in a humidified chamber under an atmosphere containing 5% CO2. The cells were examined under an inverted fluorescence phase contrast microscope. Scale bar, 100 μm.
(§4) (1 picture or pasted object on this page, not shown here)

HaCaT cells = type: cell-based, human; conditions: 400 μM rhodamine-labeled peptide, 24 h, 37° C, fluorescence microscope
Protocol: as §1, §2, §3, §4

[1] = tested on: TNF-α and IL-1β in RAW 264.7 macrophages; assay: Pro-inflammatory cytokines in macrophages; type: cell-based, mouse
Protocol: To examine cytokine expression elicited by S. aureus CCARM 0027, RAW 264.7 mouse macrophages were cultured in DMEM supplemented with antibiotics ([…] penicillin and 100 μg/mL streptomycin) and 10% fetal calf serum in 12-well plates at 37° C in a humidified chamber with an atmosphere containing 5% CO2. Expression of the pro-inflammatory cytokines TNFα and IL-β was evaluated after the addition of S. aureus CCARM 0027 (1 × 10^6 cfu/mL) for 30 min at […]. After treatment, the RAW 264.7 cells (1 × 10^6 cells/mL) were incubated for an additional 24 h with or without CSP-4 (25, 50, 100, and 200 µg/mL). The cells were then collected and the protein was extracted using PRO-PREP™ protein extraction solution (iNtRON Biotechnology, Gyeonggi-do, Korea).
RAW 264.7 cells (1 × 10^6 cells/mL) were seeded into a 12-well plate and incubated for 24 h as described above. […] The levels of pro-inflammatory cytokines in the supernatants were determined after 12 h using mouse anti-TNF-α and anti-IL-1β antibodies based on absorbance at 450 nm using a microplate reader (VERSA Max microplate reader, Molecular Devices). Cytokine concentrations were also determined using TNF-α and IL-1β enzyme-linked immunosorbent assay kits (Koma Biotech, Seoul, Korea). […]

For FLRFIGSVKHGKGHLVHHIGVAL-NH2 [CSP-4], the “Membrane disruption (SYTOX-Green fluorescence)” value (S. aureus) was “dose-dependent increase in fluorescence intensity”, the “MIC after 29 passages” value (S. aureus ATCC 29213; after exposure for 29 passages) was 16 µM and the “Increase of MIC” value (S. aureus ATCC 29213; after exposure for 29 passages, pH not given) was “approximately 2 ×”. The “Induction of drug resistance” value (S. aureus ATCC 29213; exposure for up to 29 passages) was “did not induce drug resistance”, the “Membrane damage of hRBCs” value (hRBCs) was “no detectable hemolytic or membrane-binding activity” and the “Binding to the cell membrane of HaCaT cells” value (HaCaT cells) was “no detectable hemolytic or membrane-binding activity”. For the same substance, the “TNF-α and IL-1β levels” value ([1]; RAW 264.7 cells exposed to S. aureus CCARM 0027 (1 × 10^6 cfu/mL), CSP-4 25, 50, 100, and 200 μg/mL, ELISA) was “significantly decreased” and the “TNF-α and IL-1β levels” value ([1]; RAW 264.7 cells treated with 1 μg/mL S. aureus LTA, CSP-4 100 µg/mL, immunocytochemistry) was “reduced TNF-α and IL-1β levels”.

Source: article PMC5884652, “New antimicrobial peptide kills drug-resistant pathogens without detectable resistance” (Oncotarget, 2018)
